Data: patent US6793925B2 (priority 1999, dated 2004)
≈ marks a conversion by molar mass, not a printed value. Bridge positions count the residues as written; N and C are the ends. Square brackets hold non-standard residues; d marks the D form. Peptide text beside a SMILES is read from it. * marks the point of attachment. Asp(3S-OH) = N[C@H](C(=O)O)[C@H](O)C(=O)O; Thr(4-Cl) = N[C@H](C(=O)O)[C@H](O)CCl; X1 = CCCCCCCCCCCC(O)C(O)CC(=O)*; aThr = C[C@H](O)[C@H](N)C(=O)O; X2 = CCCCCCCCCC(O)CC(=O)*; dDab = NCC[C@@H](N)C(=O)O; Dab = NCC[C@H](N)C(=O)O; Dhb = C/C=C(\N)C(=O)O

Tests used:
Assay type in all cases: cell-based
Conditions in all cases: complete inhibition of growth, Sabourauds and dextrose broth, 35° C., 48 hr, highest concentration 20 μg/ml
Aspergillus fumigatus = experiment: microtiter broth dilution antifungal assay (MIC)
Description: (§1) The presence or amount of a pseudomycin or mixture of pseudomycins can be determined by measuring the antifungal activity of a preparation. Antifungal activity was determined in vitro by obtaining the minimum inhibitory concentration (MIC) of the preparation using a standard agar dilution test or a disc-diffusion test. A preparation of one or more pseudomycins can be an extract of a cell culture, or a more purified mixture. A typical fungus employed in testing antifungal activity is C. albicans. Antifungal activity was considered significant when the test preparation caused 10-12 mm diameter zones of inhibition on Candida albicans x657 seeded agar plates.
(§2) The antifungal studies were conducted using a microtiter broth dilution assay according to National Committee for Clinical Laboratory Standards guidelines in 96 well microtiter plates. Sabourauds and dextrose broth was adjusted to contain 2.5×10^4 conida/ml. Test compound was dissolved in water and tested in two-fold dilutions starting with the highest concentration of 20 μg/ml. Plates were incubated at 35° C. for 48 hr.

C. parapsilosis = experiment: microtiter broth dilution antifungal assay (MIC)
Description: as §1, §2

Candida albicans = experiment: microtiter broth dilution antifungal assay (MIC)
Description: as §1, §2

Cryptococcus neoformans = experiment: microtiter broth dilution antifungal assay (MIC)
Description: as §1, §2

Histoplasma capsulatum = system: Histoplasma capsulatum

In the case of `C/C=C1\NC(=O)[C@H]([C@H](C)O)NC(=O)[C@H](CCN)NC(=O)[C@H](CCCCN)NC(=O)[C@H](CC(=O)O)NC(=O)[C@@H](CCN)NC(=O)[C@@H](NC(=O)CC(O)CCCCCCCCC)COC(=O)[C@H]([C@H](O)CCl)NC(=O)[C@H]([C@H](O)C(=O)O)NC1=O` (stereo partly drawn) [Pseudomycin B′, pseudomycin B′] (X2-S[dDab]DK[Dab][aThr][Dhb][Asp(3S-OH)][Thr(4-Cl)]; ester 1-C), the MIC (Aspergillus fumigatus) is reported as over 20 µg/mL, the MIC (C. parapsilosis) is reported as 10 µg/mL (≈ 8.48 µM) and the MIC (Candida albicans) is reported as 10 µg/mL (≈ 8.48 µM). For the same compound, the MIC (Cryptococcus neoformans) was 1.25 µg/mL (≈ 1.06 µM) and the MIC (Histoplasma capsulatum) was 1.25-5.0 μ/ml.

Compound `C/C=C1\NC(=O)[C@H]([C@H](C)O)NC(=O)[C@H](CCN)NC(=O)[C@H](CCCCN)NC(=O)[C@H](CC(=O)O)NC(=O)[C@@H](CCN)NC(=O)[C@@H](NC(=O)CC(O)C(O)CCCCCCCCCCC)COC(=O)[C@H]([C@H](O)CCl)NC(=O)[C@H]([C@H](O)C(=O)O)NC1=O` (stereo partly drawn) [Pseudomycin A′, pseudomycin A′] (X1-S[dDab]DK[Dab][aThr][Dhb][Asp(3S-OH)][Thr(4-Cl)]; ester 1-C) has an MIC (Aspergillus fumigatus) of over 20 µg/mL, an MIC (C. parapsilosis) of 5.0 µg/mL (≈ 4.04 µM) and an MIC (Candida albicans) of 2.5 µg/mL (≈ 2.02 µM). The MIC (Cryptococcus neoformans) was 1.25 µg/mL (≈ 1.01 µM) and the MIC (Histoplasma capsulatum) was 5.0 µg/mL (≈ 4.04 µM).
